According to patent US20240226053A9, “Compositions for ophthalmic care” (ReBio Technologies Oy, priority 2021, published 2024):

Tests used:
[1] = Solubility of regorafenib in water and PBS; assay type: physicochemical
Procedure: Solubility of regorafenib in water and PBS is negligible. Thus, Tween80 was added in PBS to increase solubility in the dissolution media. Regorafenib in vitro release studies from PGLA/DMSO ISFI were carried out in sink conditions, 2-5 ml PBS pH 7.2 (+Tween80 0.05%) in plastic and glass vessels at 35.5° C. (estimated at 10 mm depth in eye) and 60 rpm, orbit 61 mm in dark.

[2] = Chemical stability of latanoprost in HBSS-buffer; assay type: physicochemical; details: HBSS-buffer pH 7.4, +37° C., 48 h
Procedure: Chemical stability of latanoprost was studied simultaneously in HBSS-buffer, pH 7.4, using the same protocol but replacing the vitreous with the buffer.
(§1) Hydrolysis of latanoprost was evaluated in buffer and in vitreous with pH adjusted to 7.4.

[3] = Drug release from implant in porcine vitreous vs. PBS; details: 35.5° C., 35% PLGA9010/60% DMSO/4% b-HPCD, 180 μg latanoprost
Procedure: These tests were carried out to ensure that the latanoprost released from the implant would go through hydrolysis to latanoprost acid, which is the active form of the molecule. Purpose of this study was also study the conversion rate of latanoprost to latanoprost acid. In addition, the release of latanoprost from ReBio test formulations was evaluated in vitreous vs. in PBS.
Next the drug release from implant was also tested in porcine vitreous vs. PBS(=phosphate buffered saline).
Formulation composition in this example was 35% PLGA9010/60% DMSO/4% b-HPCD—180 μg Latanoprost.

[4] = Hydrolysis of latanoprost to latanoprost acid in porcine vitreous; assay type: in vitro ADME
Procedure: Porcine vitreous was mixed with Hanks' balanced salt solution containing 50 mM Hepes (HBSS-buffer, pH 7.4) at and vitreous mix (200 μl) was pipetted to 96-well plates. The plates were incubated at +37° C. and 5% CO2 with mild shaking for one hour to equilibrate the pH of vitreous into neutral range (pH 7.3-7.5). After incubation, 50 μl of 50 μg/mL latanoprost was added to plates and mixed. The final vitreous/buffer ratio was 1:1 and latanoprost concentration 10 μg/mL Latanoprost was incubated in vitreous at +37° C. and 5% CO2 with mild shaking and samples were collected at time points (0, 1, 2, 4, 6, 24, 29, 48 hours). At each time point the 150 μl of the sample was mixed by vortexing with the 150 μl acetonitrile. The samples were stored at −20° C. until HPLC analysis.
as §1
First hydrolysis of latanoprost was evaluated in buffer and in vitreous with pH adjusted to 7.4 and non pH adjusted.

rat eyes = test: Tolerability of intravitreally injected DMSO in rat eyes; assay type: in vivo; details: intravitreal, 3 μl, 60%, 1/10 and 1/100 dilution, monitored two weeks
Procedure: In order to test the tolerability of DMSO in eye, DMSO (USP, Ph. Eur.) was injected to the rat eyes intravitreally using 34 G needle The injected volume was 3 μl and three concentrations were injected; 60%, 1/10 dilution, 1/100 dilution. Used Ph. Eur. grade DMSO was 0.2 μm Filter sterilized in Class 5 isolator before the injection.
The rats were monitored for two weeks using the following endpoints: • fundus imaging, including blood vessels • cloudiness and other symptoms in the anterior part of the eye • optic nerve head • state of the vasculature in the posterior eye segment (FAG) • ERG • intraocular pressure • retinal thickness with OCT • histology (in the end)

SMILES: CNC(=O)c1cc(Oc2ccc(NC(=O)Nc3ccc(Cl)c(C(F)(F)F)c3)c(F)c2)ccn1 [regorafenib, Regorafenib]
- solubility in water and PBS [1]: negligible

SMILES: CC(C)OC(=O)CCC/C=C\C[C@@H]1[C@@H](CC[C@@H](O)CCc2ccccc2)[C@H](O)C[C@@H]1O [latanoprost, Latanoprost]
- latanoprost acid formation in mere buffer [2]: No latanoprost acid was formed
- conversion of released latanoprost to acid form in PBS [3]: did not change to its acid form
- amount of latanoprost acid in vitreous over time ([4]; porcine vitreous, 48 h experiment): steadily increased
- rate constant of latanoprost acid formation in vitreous (zero-order kinetics) ([4]; porcine vitreous/HBSS buffer 1:1, pH adjusted to 7.4, +37° C., latanoprost 10 μg/mL, 48 h): 0.111 µg/h

SMILES: C[S+](C)[O-] [DMSO, dimethylsulfoxide]
- adverse effects in eye (rat eyes): No adverse effect
